Assay results: US8518903B2, “Use of toll-like receptor-9 agonists” (University of Pittsburgh—of the Commonwealth System of …, priority 2007, dated 2013)

System: enterocytes
Assay: Phosphorylated p38 and ERK in enterocytes exposed to LPS and CpG (Western blot)
Type: cell-based
Method: FIG. 6A-C. LPS signaling is attenuated by the TLR9 ligand CpG-DNA in enterocytes. (A) Comparison of phosphorylated p38 versus total p38 in a negative control, in the presence of 50 μg/ml LPS, in the presence of 50 μg/ml LPS and 10 μM CpG, and in the presence of 10 μM CpG. (B) Comparison of phosphorylated ERK versus total ERK in a negative control, in the presence of LPS, in the presence of LPS and CpG, and in the presence of CpG. (C) Bar graph showing the results of A.
A first series of experiments was designed to study the consequences of the TLR4 activator LPS and a CpG TLR9 agonist on the mediators of activated TLR4, p38 and ERK. Throughout this example section, the CpG used was CpG ODN, 5′-[…]-3′ (SEQ ID NO:6) P38 and ERK are both phosphorylated in their activated form. As shown in FIG. 6A-C, the relative levels of phosphorylated p38 and ERK increased when enterocytes were exposed to LPS.

For 5′-TCCATGACGTTCCTGACGTT-3′ [CpG-DNA], the “relative level of phosphorylated p38 (increase caused by LPS)” value (50 μg/ml LPS + 10 μM CpG vs LPS alone) was “significantly less” and the “relative level of phosphorylated ERK (increase caused by LPS)” value (LPS + CpG vs LPS alone) was “significantly less”.
